Laboratory results taken from ChEMBL document CHEMBL5725430, “Dihydro-benzo-oxazine and dihydro-pyrido-oxazine derivatives” (2017).
Where “and” joins values, the source holds several entries; their conditions need not be identical. Identical values can stand only once.

How the values were obtained:
[1] = biological target: Phosphatidylinositol 4,5-bisphosphate 3-kinase catalytic subunit alpha isoform (Homo sapiens, UniProt P42336); assay: (§1) The final concentrations of ATP and phosphatidyl inositol in the assay are 5 μM and 6 μg/mL, respectively. The reaction is started by the addition of PI3 kinase, e.g. PI3 kinase 6.p110δ.The components of the assay are added per well as follows 10 μl test compound in 5% DMSO per well in columns 2-1. Total activity is determined by addition 10 μl of 5% vol/vol DMSO in the first 4 wells of column 1 and the last 4 wells of column 12. The background is determined by addition of 10 μM control compound to the last 4 wells of column 1 and the first 4 wells of column 12. 2 mL Assay mix are prepared per plate 1.912 mL of HEPES assay buffer 8.33 μl of 3 mM stock of ATP giving a final concentration of 5 μM per well 1 μl of [33P]ATP on the activity date giving 0.05 μCi per well 30 μl of 1 mg/mL PI stock giving a final concentration of 6 μg/mL per well 5 μl of 1 M stock MgCl2 giving a final concentration of 1 mM per well 20 μl of the assay mix are added per well. 2 mL Enzyme mix are prepared per plate (x* μl PI3 kinase p110(3 in 2 mL of kinase buffer). The Enzyme mix is kept on ice during addition to the assay plates. 20 μl ‘Enzyme mix’ are added/well to start the reaction. The plate is then incubated at room temperature for 90 minutes. The reaction is terminated by the addition of 50 μl WGA-SPA bead (wheat germ agglutinin-coated Scintillation Proximity Assay beads) suspension per well. The assay plate is sealed using TopSeal-S (heat seal for polystyrene microplates, PerkinElmer LAS [Deutschland] GmbH, Rodgau, Germany) and incubated at room temperature for at least 60 minutes. The assay plate is then centrifuged at 1500 rpm for 2 minutes using the Jouan bench top centrifuge (Jouan Inc., Nantes, France). The assay plate is counted using a Packard TopCount, each well being counted for 20 seconds. The volume of enzyme is dependent on the enzymatic activity of the batch in use.In a more preferred assay, the kinase reaction is performed in a final volume of 10 μl per well of a low volume non-binding CORNING, 384 well black plate (Cat. No. #3676). The final concentrations of ATP and phosphatidyl inositol (PI) in the assay are 1 μM and 10 μg/mL, respectively. The reaction is started by the addition of ATP.The components of the assay are added per well as follows:50 nl test compounds in 90% DMSO per well, in columns 1-20, 8 concentrations (⅓ and 1/3.33 serial dilution step) in single. Low control: 50 nl of 90% DMSO in half the wells of columns 23-24 (0.45% in final). High control: 50 nl of reference compound (e.g. compound of Example 7 in WO 2006/122806) in the other half of columns 23-24 (2.5 μM in final). Standard: 50 nl of reference compound as just mentioned diluted as the test compounds in columns 21-22. 20 mL buffer are prepared per assay 200 μl of 1M TRIS HCl pH7.5 (10 mM in final) 60 μl of 1M MgCl2 (3 mM in final) 500 μl of 2M NaCl (50 mM in final) 100 μl of 10% CHAPS (0.05% in final) 200 μl of 100 mM DTT (1 mM in final) 18.94 mL of nanopure water 10 mL PI are prepared per assay 200 μl of 1 mg/mL 1-alpha-Phosphatidylinositol (Liver Bovine, Avanti Polar Lipids Cat. No. 840042C MW=909.12) prepared in 3% OctylGlucoside (10 μg/mL in final) 9.8 mL of buffer 10 mL ATP are prepared per assay.
Sequence of Phosphatidylinositol 4,5-bisphosphate 3-kinase catalytic subunit alpha isoform (P42336 whole entry, canonical isoform): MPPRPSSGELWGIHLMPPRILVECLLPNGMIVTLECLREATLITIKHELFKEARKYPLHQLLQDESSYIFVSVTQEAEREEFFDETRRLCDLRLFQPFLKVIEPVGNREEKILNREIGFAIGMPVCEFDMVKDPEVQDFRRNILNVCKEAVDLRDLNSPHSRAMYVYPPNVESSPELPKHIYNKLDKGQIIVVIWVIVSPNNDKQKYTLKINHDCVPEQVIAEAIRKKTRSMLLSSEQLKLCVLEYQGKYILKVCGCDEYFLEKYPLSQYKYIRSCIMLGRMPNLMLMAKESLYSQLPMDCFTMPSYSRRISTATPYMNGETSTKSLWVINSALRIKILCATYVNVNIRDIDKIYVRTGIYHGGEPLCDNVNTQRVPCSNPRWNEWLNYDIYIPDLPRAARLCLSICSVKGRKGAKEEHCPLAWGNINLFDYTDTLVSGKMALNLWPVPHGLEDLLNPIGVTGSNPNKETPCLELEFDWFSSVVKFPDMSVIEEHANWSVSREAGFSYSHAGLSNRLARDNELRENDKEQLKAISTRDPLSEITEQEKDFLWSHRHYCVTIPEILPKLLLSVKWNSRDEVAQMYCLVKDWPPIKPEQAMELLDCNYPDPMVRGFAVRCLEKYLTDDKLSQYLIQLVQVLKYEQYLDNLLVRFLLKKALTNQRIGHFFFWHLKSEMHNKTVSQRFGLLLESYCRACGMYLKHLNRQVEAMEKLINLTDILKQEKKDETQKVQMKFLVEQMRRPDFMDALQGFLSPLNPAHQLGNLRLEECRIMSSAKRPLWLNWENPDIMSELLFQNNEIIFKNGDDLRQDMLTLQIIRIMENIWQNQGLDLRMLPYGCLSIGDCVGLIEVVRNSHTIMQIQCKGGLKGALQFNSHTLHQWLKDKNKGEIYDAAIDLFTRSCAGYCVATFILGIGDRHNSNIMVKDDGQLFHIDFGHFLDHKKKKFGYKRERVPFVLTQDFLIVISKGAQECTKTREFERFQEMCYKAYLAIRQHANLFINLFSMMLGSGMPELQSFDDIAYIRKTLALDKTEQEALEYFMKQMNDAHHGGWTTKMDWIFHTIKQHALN

[2] = biological target: T1, Phosphatidylinositol 4,5-bisphosphate 3-kinase catalytic subunit delta isoform (Homo sapiens, UniProt O00329); assay: as §1
T1 sequence (O00329 whole entry): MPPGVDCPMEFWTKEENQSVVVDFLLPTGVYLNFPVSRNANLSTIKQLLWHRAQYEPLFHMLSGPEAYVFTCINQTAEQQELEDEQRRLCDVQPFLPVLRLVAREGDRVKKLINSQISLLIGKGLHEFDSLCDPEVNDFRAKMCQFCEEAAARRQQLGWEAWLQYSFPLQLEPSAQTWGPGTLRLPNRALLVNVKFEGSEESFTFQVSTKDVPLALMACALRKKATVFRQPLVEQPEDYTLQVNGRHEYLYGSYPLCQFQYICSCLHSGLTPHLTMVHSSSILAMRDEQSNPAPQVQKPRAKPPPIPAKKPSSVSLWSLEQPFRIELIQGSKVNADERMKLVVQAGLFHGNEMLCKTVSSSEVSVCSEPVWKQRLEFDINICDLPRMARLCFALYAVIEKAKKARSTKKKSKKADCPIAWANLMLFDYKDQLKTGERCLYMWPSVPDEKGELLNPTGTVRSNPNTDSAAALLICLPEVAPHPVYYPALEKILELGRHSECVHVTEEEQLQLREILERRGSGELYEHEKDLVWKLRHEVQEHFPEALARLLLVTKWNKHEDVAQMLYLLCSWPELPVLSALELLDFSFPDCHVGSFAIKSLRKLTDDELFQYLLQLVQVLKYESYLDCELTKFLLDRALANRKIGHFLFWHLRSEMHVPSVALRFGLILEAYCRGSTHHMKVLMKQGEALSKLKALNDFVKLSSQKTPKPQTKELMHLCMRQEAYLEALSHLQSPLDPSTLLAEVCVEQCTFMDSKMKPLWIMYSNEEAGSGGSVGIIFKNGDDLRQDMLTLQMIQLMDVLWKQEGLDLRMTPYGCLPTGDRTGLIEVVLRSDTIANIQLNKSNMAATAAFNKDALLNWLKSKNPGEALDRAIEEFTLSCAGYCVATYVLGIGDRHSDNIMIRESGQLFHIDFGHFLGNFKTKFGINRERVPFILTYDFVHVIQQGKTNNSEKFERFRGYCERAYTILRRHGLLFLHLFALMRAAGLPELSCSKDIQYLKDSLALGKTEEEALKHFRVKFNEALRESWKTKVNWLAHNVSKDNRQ

Compound	IC50 [1]	IC50 [2]
COc1ncc(N2CCOc3ccc(O[C@H]4CCN(C(=O)C(C)C)C4)cc32)cc1C#N	463 nM	11 nM
COc1ncc(N2CCOc3ccc(O[C@H]4CCN(C(=O)c5cn(C)cn5)C4)cc32)cc1F	209 nM	10.2 nM
Cc1cc(N2CCOc3ccc(O[C@H]4CCN(C(=O)c5cn(C)cn5)C4)cc32)cnc1Cl	193 nM	32 nM
Cc1cc(N2CCOc3cnc(O[C@H]4CCN(C(=O)C5CCS(=O)(=O)CC5)C4)cc32)cnc1OC(F)F	870 nM	10 nM
COc1cc(N2CCOc3ccc(O[C@H]4CCN(C(=O)c5cn(C)cn5)C4)cc32)cnc1Cl	496 nM	41 nM
Cc1ccc(N2CCOc3ccc(O[C@H]4CCN(C(=O)C5CCOCC5)C4)cc32)cn1	4660 nM	37 nM
CC(C)S(=O)(=O)c1cncc(N2CCOc3ccc(O[C@H]4CCN(C(=O)C5CCOCC5)C4)cc32)c1	2240 nM	110 nM
COc1cc(N2CCOc3ccc(O[C@H]4CCN(C(=O)C5CCC(F)(F)CC5)C4)cc32)cnc1S(C)(=O)=O	870 nM	35 nM
O=C(C1CCOCC1)N1CC[C@H](Oc2ccc3c(c2)N(c2cncc(S(=O)(=O)N4CCOCC4)c2)CCO3)C1	313 nM	3 nM
O=C(C1CCOCC1)N1CC[C@H](Oc2ccc3c(c2)N(c2cncc(C(F)(F)F)c2)CCO3)C1	377 nM	9 nM
Cc1cc(N2CCOc3ccc(O[C@H]4CCN(C(=O)c5ccc(=O)[nH]c5)C4)cc32)cnc1Cl	795 nM	35 nM
COc1cc(N2CCOc3ccc(O[C@H]4CCN(C(=O)C5CCCO5)C4)cc32)cnc1OC (single isomer, unassigned)	703 nM and 521 nM	5 nM and 7 nM
